# Assay results reported in patent publication US6239134A, “Diazole derivatives as serotonergic agents” (American Home Products Corp., priority 2000, dated 2001).
# Structures can show the parent of a compound that is named as a salt. Where two headings read alike, the source gives them in different places.
# Tests used:
# human 5HT1A receptor [1] = molecular target: T1, human 5HT1A receptor (Homo sapiens, UniProt P08908); assay: 5-HT1A Receptor Intrinsic Activity Assay (agonist mode; reversal of stimulated cAMP in stably transfected CHO cells); assay type: cell-based; conditions: read-out: cAMP Emax
# T1 construct: expressed in transfected cells; host or cells: CHO cells, stably transfected
# T1 sequence (P08908 1-422): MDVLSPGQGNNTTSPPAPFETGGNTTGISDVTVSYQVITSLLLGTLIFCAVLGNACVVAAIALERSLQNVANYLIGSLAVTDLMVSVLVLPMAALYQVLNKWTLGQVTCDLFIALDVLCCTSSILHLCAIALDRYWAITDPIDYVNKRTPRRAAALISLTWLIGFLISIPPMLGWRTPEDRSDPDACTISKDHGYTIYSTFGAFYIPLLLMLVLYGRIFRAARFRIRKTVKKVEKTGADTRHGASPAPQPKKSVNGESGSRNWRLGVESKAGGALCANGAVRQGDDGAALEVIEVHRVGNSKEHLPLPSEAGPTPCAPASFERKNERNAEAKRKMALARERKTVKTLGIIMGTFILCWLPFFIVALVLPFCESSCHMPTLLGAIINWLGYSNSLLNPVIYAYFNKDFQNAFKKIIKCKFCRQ
# Experimental: 5-HT1A Receptor Intrinsic Activity Assay
# The intrinsic activity of compounds of the present invention was established by testing the claimed compounds ability to reverse the stimulation of cyclic adenosinemonophosphate (cAMP) in CHO cells stably transfected with the human 5-HT1A receptor.
# Stably transfected CHO cells were grown in DMEM containing 10% heat inactivated FBS and non-essential amino acids. The cells are plated at a density of […] per well in a 24 well plate and incubated for 2 days in a CO2 incubator. On the second day, the media is replaced with 0.5 mL treatment buffer (DMEM+25 mM HEPES, 5 mM theophylline, […] pargyline) and incubated for 10 minutes at 37° C. Wells are treated with forskolin ([…]) followed immediately by the test compound ([…] for initial screen) and incubated for an additional 10 minutes at 37° C. The reaction is terminated by removal of the media and addition of 0.5 mL ice cold assay buffer (supplied in the RIA kit). Plates are stored at -20° C. prior to assessment of cAMP formation by RIA. EC50 values are determined for the active test compounds. Compounds shown to have no agonist activities (Emax=0%) are further analyzed for their ability to reverse agonist induced activity. In separate experiments, 6 concentrations of antagonist are preincubated for 20 minutes prior to the addition of agonist and forskolin. Cells are harvested as described above. The cAMP kit is supplied by Amersham and the RIA is performed as per kit instructions, and calculations of IC50 performed by GraphPad Prism.
# human 5HT1A receptor [2] = molecular target: T1, human 5HT1A receptor; assay: 5-HT1A Receptor Binding Assay (displacement of [3H] 8-OH-DPAT in stably transfected CHO cells); conditions: @ 1 _M, single point assay
# Experimental: 5-HT1A Receptor Binding Assay
# High affinity for the serotonin 5-HT1A receptor was established by testing the claimed compound's ability to displace [3H] 8-OH-DPAT binding in CHO cells stably transfected with the human 5HT1A receptor. Stably transfected CHO cells are grown in DMEM containing 10% heat inactivated FBS and non-essential amino acids. Cells are scraped off the plate, transferred to centrifuge tubes, and washed twice by centrifugation (2000 rpm for 10 min., 4° C.) in buffer (50 mM Tris pH 7.5). The resulting pellets are aliquoted and placed at -80° C. On the day of assay, the cells are thawed on ice and resuspended in buffer. The binding assay is performed in a 96 well microtiter plate in a total volume of […]. Non-specific binding is determined in the presence of […], final ligand concentration is 1.5 nM. Following a 30 minute incubation at room temperature, the reaction is terminated by the addition of ice cold buffer and rapid filtration through a GF/B filter presoaked for 30 minutes in 0.5% PEI. Compounds are initially tested in a single point assay to determine percent inhibition at […], and Ki values are determined for the active compounds.
# [3] = forskolin-stimulated cAMP, CHO cells
Compound,Emax (human 5HT1A receptor [1]; [3]),further results
"COc1nsnc1N1CCN(C[C@@H](Cc2cccnc2)NC(=O)C2(C)CCCCC2)CC1 [Compound 11, 1-Methylcyclohexanecarboxylic acid {(1R)-2-[4-(4-methoxy-[1,2,5]thiadiazol-3-yl)-piperazin-1-yl]-1-pyridin-3-ylmethylethyl}amide]",0%,
"O=C(N[C@@H](Cc1ccccc1)CN1CCN(c2nsnc2Cl)CC1)C1CCCCC1 [Compound 4, Cyclohexanecarboxylic acid {(1S)-1-benzyl-2-(4-(4-chloro[1,2,5}thiadiazol-3-yl)piperazin-1-yl]ethyl}amide fumarate]",,Emax (human 5HT1A receptor [1]; CHO): 93%
"O=C(N[C@@H](Cc1ccccc1)CN1CCN(c2nsnc2Cl)CC1)c1ccccn1 [Compound 6, Pyridine-2-carboxylic acid {(1S)-1-benzyl-2,3-[4(4-chloro[1,2,5]thiadiazol-3-yl)piperazin-1-yl]ethyl}amide]",,"5-HT1A binding, percent inhibition (human 5HT1A receptor [2]): 47%"

# Second part, led by results:
Emax (human 5HT1A receptor [1]; [3]),Compound,further results
0%,CN(C(=O)C1CCCCC1)[C@H](Cc1ccccc1)CN1CCN(c2nsnc2Cl)CC1 [Compound 7],
0%,"COc1nsnc1N1CCN(C[C@@H](Cc2ccccc2)N(C)C(=O)C2CCCCC2)CC1 [Compound 8, Cyclohexanecarboxylic acid {(1R)-1-benzyl-2-[4-(4-methoxy-[1,2,5]thiadiazol-3-yl)-piperazine-1-yl]ethyl}methyl amide]",
